pEC50: −log10 of the molar value. A value given as a limit tells only on which side of the number the result lay.

For assay [1], the target named is T1, human GPCR sphingosine 1-phosphate receptor 2 (S1PR2) (Homo sapiens, UniProt O95136).
T1 construct: host or cells: CHO
In words: S1P2 antagonist assay (Ca2+ flux, S1P at EC80). The assay is classed as cell-based. Conditions: CHO-S1PR2 cells, highest concentration 20 μM. Here is the method: Triggering of S1PR2 by administration of Sphingosine-1-phosphate leads to a transient increase in intracellular Ca^2+. The Ca^2+ flux assays are measuring the release of Ca^2+ intracellularly by use of a Ca^2+ sensitive fluorescent dye. The assay is firstly run in agonist mode (incubation of compounds alone) to ensure that the Ca^2+ released measured is not caused by the test compound having an agonistic effect. Then the assay is continued in antagonist mode (Sphingosine-1-Phosphate added to incubated medium containing the test compounds).
CHO cells stably overexpressing human GPCR sphingosine 1-phosphate receptor 2 (CHO—S1PR2 Perkin Elmer; ES-594-A) are seeded from a frozen stock in 384 wells sterile microplates (50 μL; 7,500 cells/well) and are incubated overnight at 37° C. and 5% CO2. The next day cells are washed twice with starvation medium (F-12 Ham's medium containing 0.1% BSA (Fatty acid free: FAF)) and left in […] starvation medium for 1 h at 37° C., 5% CO2. After this starvation cells are incubated with […] buffer containing the Ca^2+-sensitive fluorescent dye (0.5 mg Fluo8+125 mg Allura Red in 100 ml of 1% DMSO, in HBSS+20 mM Hepes+5 mM probenecid). The cells are incubated for an additional 1 hour after which 10 μL compounds, diluted in HBSS buffer with 20 mM Hepes and 0.1% BSA (FAF), are added to the cells and intracellular Ca^2+ changes are immediately measured by reading fluorescence during 3 min (FDSS/μCELL reader). The ratio of the maximal fluorescence over the background fluorescence before compound injection is used to determine compound response.
(§1) After readout of the agonist activity, the plates are incubated for 15 min at 37° C. and 5% CO2. Then, cells are stimulated with 10 μL Sphingosine-1-Phosphate (S1P) (Avanti Polar lipids-860492P) at its EC80 concentration. Intracellular Ca^2+ changes are immediately measured by reading fluorescence during 3 min (FDSS/μCELL reader). The ratio of the maximal fluorescence over the background fluorescence before compound injection is used to determine compound response.
(§2) For EC50 determination, a 10 point dilution series of compounds starting from 23.3 μM and 20 μM highest final concentration for agonist and antagonist respectively, ⅓ dilution was performed.
(§3) The obtained ratio's for agonist and antagonist readout were normalized versus vehicle and EC100 of S1P as controls for agonist mode and versus vehicle and EC80 of S1P for antagonist mode. From these normalized data EC50 of the compounds are derived.
In general terms: Calcium assays in cells follow changes in intracellular calcium, usually with a dye or a luminescent sensor.

Assay [2] deals with T2, human GPCR sphingosine 1-phosphate receptor 1 (S1PR1) (Homo sapiens, UniProt P21453).
T2 construct: host or cells: CHO
T2 sequence (P21453 whole entry): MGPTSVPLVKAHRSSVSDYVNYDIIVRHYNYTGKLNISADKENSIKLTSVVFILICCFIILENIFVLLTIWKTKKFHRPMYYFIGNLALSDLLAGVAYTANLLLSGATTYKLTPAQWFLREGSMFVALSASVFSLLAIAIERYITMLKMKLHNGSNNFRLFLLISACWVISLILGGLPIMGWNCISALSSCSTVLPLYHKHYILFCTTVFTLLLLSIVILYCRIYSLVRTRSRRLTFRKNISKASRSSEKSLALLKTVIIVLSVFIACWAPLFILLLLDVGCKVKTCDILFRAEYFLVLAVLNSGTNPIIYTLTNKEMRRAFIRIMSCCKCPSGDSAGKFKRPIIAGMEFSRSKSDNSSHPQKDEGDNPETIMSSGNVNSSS
In words: S1PR1 selectivity assay (Ca2+ flux, antagonist). The assay is classed as cell-based. Conditions: S1P1 antagonist EC50, CHO cells overexpressing human S1PR1 and Gq protein. Here is the method:
as §1, §2, §3
(§4) To evaluate the selectivity of the compounds for S1PR2 over S1PR1 and S1PR5, a similar assay set up as described above for the S1PR2 calcium flux assays was performed: CHO cells stably overexpressing human GPCR sphingosine 1-phosphate receptor 1 and Gq protein (Euroscreen, FAST-0197A) or overexpressing human GPCR sphingosine 1-phosphate receptor 5 and Gq protein were used (Perkin Elmer, ES-593-A). In case of the S1PR5 assay triggering was done with an S1PR5 specific agonist instead of with S1P (Hobson et al., 2015).

Assay [3] deals with T3, human GPCR sphingosine 1-phosphate receptor 5 (S1PR5) (Homo sapiens, UniProt Q9H228).
T3 construct: host or cells: CHO
T3 sequence (Q9H228 whole entry): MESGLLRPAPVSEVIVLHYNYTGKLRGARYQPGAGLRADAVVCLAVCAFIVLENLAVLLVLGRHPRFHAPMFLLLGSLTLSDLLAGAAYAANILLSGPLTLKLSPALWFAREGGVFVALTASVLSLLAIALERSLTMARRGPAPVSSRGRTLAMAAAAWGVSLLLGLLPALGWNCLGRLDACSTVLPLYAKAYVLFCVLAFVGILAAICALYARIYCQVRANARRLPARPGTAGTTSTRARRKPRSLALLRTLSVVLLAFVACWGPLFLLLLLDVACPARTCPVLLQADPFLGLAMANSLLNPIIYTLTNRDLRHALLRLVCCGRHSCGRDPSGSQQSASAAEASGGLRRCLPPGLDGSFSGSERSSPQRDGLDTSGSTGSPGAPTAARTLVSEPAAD
The experiment in a line: S1PR5 selectivity assay (Ca2+ flux, antagonist, S1PR5 specific agonist trigger). The assay is classed as cell-based. The conditions noted are these: S1P5 antagonist EC50, CHO cells overexpressing human S1PR5 and Gq protein. The protocol:
as §1, §2, §3, §4

Another assay has as its target T4, S1PR2 (Homo sapiens, UniProt O95136).
T4 construct: expressed in transfected cells
The experiment in a line: GTP-γS binding assay ([35S]GTPγS, S1P at EC80, S1PR2 membranes). The assay is classed as biochemical. The conditions noted are these: membranes from stable cell line over expressing S1PR2, read-out: S1PR2 EC. Here is the method: The following assay can be used for determination of S1PR2 activation. The [^35S] GTPγS assay measures the level of G protein activation following agonist occupation of a GPCR, by determining the binding of the non-hydrolysable analog [^35S] GTPγS to Gα subunits.
The assay is performed in a 96 well plate where the following reagents are added. First 50 μL compound is added into the assay plate, followed by addition of 20 μL S1P at EC80 concentration (concentration which gives 80% of the activity of S1PR2). Then, 30 μL of a mixture consisting of membranes-GTPγS-SpA beads is added [mixture consists of 2.5 μg/well membranes derived from stable cell line over expressing S1PR2 (membranes are pre-incubated with 1 μM GDP for 15 min at 4° C.), 0.1 nM [35S]GTPγS (Perkin Elmer, NEG030) and 0.5 mg/well PVT-WGA SpA beads (Perkin Elmer, RPNQ0001)]. All components are diluted in assay buffer containing 20 mM Tris pH 7.5; 10 mM MgCl2; 100 mM NaCl; 0.1% BSA FAF; 50 ug/ml saponin. After an incubation for 4 h at room temperature, plates are centrifuged at 2000 rpm during 20 min. Plates are read on a Topcount reader (Perkin Elmer) immediately after centrifugation (readout time, 1 min/well).

T1 sequence (O95136 whole entry): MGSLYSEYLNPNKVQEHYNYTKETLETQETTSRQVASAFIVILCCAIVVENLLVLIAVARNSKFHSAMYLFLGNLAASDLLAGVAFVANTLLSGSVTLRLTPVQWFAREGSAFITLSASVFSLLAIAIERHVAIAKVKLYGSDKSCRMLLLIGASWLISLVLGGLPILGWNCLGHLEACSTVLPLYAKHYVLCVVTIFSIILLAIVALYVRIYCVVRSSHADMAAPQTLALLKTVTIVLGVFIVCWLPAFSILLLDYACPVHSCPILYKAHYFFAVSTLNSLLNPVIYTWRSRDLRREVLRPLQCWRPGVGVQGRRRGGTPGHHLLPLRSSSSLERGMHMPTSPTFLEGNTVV
T4 sequence (O95136 whole entry): as above

With `Cc1cc(CNC(=O)Nc2cc(OC3CCOC3)nc(C(F)(F)F)c2)nnc1-c1cn(C)nc1C(F)(F)F` (stereo not drawn) [Compound 26, 1-[[5-methyl-6-[1-methyl-3-(trifluoromethyl)pyrazol-4-yl]pyridazin-3-yl]methyl]-3-[2-tetrahydrofuran-3-yloxy-6-(trifluoromethyl)-4-pyridyl]urea], the pEC50 in assay [1] is 6.96; in assay [2], not above 4.70; in assay [3], not above 4.70; on S1PR2, 6.11.
`Cc1cc(CNC(=O)Nc2cnc(Cl)c(OCC(F)F)c2)nnc1-c1cn(C)nc1C(F)(F)F` [Compound 23, 1-[6-chloro-5-(2,2-difluoroethoxy)-3-pyridyl]-3-[[5-methyl-6-[1-methyl-3-(trifluoromethyl)pyrazol-4-yl]pyridazin-3-yl]methyl]urea]: the pEC50 in assay [1] was 7.97; in assay [2] it was not above 4.70; in assay [3] it was not above 4.70; on S1PR2 it was 7.13.
Regarding `Cc1cc(CNC(=O)Nc2ccnc(Cl)c2)nnc1-c1cn(C)nc1C(F)(F)F` [Compound 44, 1-(2-chloro-4-pyridyl)-3-[[5-methyl-6-[1-methyl-3-(trifluoromethyl)pyrazol-4-yl]pyridazin-3-yl]methyl]urea], the pEC50 was 5.35 in assay [1], not above 4.70 in assay [2], not above 4.70 in assay [3] and 5.38 on S1PR2.
On to `Cc1cc(CNC(=O)Nc2cc(C#N)nc(OCC(F)F)c2)nnc1-c1cn(C)nc1C(F)(F)F` [Compound 28, 1-[2-cyano-6-(2,2-difluoroethoxy)-4-pyridyl]-3-[[5-methyl-6-[1-methyl-3-(trifluoromethyl)pyrazol-4-yl]pyridazin-3-yl]methyl]urea], for which the pEC50 in assay [1] is 7.80; in assay [2] it was 5.18; in assay [3] it was 5.18; on S1PR2, 7.05.
Turning to `CCOc1cc(NC(=O)NCc2cc(C)c(-c3cn(C)nc3C(F)(F)F)nn2)cnc1Cl` [Compound 24, 1-(6-chloro-5-ethoxy-3-pyridyl)-3-[[5-methyl-6-[1-methyl-3-(trifluoromethyl)pyrazol-4-yl]pyridazin-3-yl]methyl]urea], the pEC50 in assay [1] is 8.06; in assay [2], not above 4.70; in assay [3], not above 4.70; at S1PR2, 7.27.
For `CCOc1nc(Cl)cc(NC(=O)NCc2cc(C)c(-c3cn(C)nc3C(F)(F)F)nn2)c1C` [Compound 20, 1-(6-chloro-2-ethoxy-3-methyl-4-pyridyl)-3-[[5-methyl-6-[1-methyl-3-(trifluoromethyl)pyrazol-4-yl]pyridazin-3-yl]methyl]urea], the pEC50 in assay [1] was 8.06; in assay [2], 5.41; in assay [3] it was 5.68; at S1PR2 it was 7.82.

Source of the values: patent publication US20190388421A1, “NOVEL COMPOUNDS AND PHARMACEUTICAL COMPOSITIONS THEREOF FOR THE TREATMENT OF FIBROSIS” (Galapagos NV, priority 2016, published 2019).
